Among the data in patent US11759455B2, “Substituted 1H-imidazo[4,5-b]pyridin-2(3H)-ones and their use as GLUN2B receptor modulators” (JANSSEN PHARMACEUTICA NV, priority 2016, dated 2023) are IC50 values, retold here.

For orientation: IC50 means the point on the concentration scale where inhibition reaches its midpoint.

The assay addresses T1, human GluN1/GluN2B NMDA receptors (Homo sapiens, UniProt Q13224).
T1 construct: expressed in transfected cells
Nature of the assay: Cell-based calcium flux (FLIPR) assay on cloned human NR1/NR2B ion channels expressed in mammalian cells (standard and HTS buffer variants).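 Also: stable Tet-On inducible cell line, Ca2+ influx triggered by glutamate at about EC40 plus 10 µM glycine, fluorescent dye read-out over 5 min, normalized to control wells.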 For orientation: Calcium flux is commonly read through the fluorescence of an indicator in the cells.

Where [1] appears, read: standard assay buffer (0.5 mM MgCl2 dye loading; 137 mM NaCl, 4 mM KCl assay buffer), human GluN1/GluN2B cells, read-out: NR2B IC50 (μM) standard assay.
Setting [2] is: standard assay buffer (0.5 mM MgCl2 in dye loading buffer; 137 mM NaCl, 4 mM KCl in assay buffer), human GluN1/GluN2B, read-out: NR2B IC50 (μM) standard assay.
[3] abbreviates: HTS assay buffer (1.5 mM MgCl2 in dye loading buffer; 150 mM NaCl, 3 mM KCl in assay buffer), human GluN1/GluN2B, read-out: NR2B IC50 (μM) HTS assay.

Like-named read-outs stand apart in the source and are kept apart here.

T1 sequence (Q13224 27-1484, other chains not shown): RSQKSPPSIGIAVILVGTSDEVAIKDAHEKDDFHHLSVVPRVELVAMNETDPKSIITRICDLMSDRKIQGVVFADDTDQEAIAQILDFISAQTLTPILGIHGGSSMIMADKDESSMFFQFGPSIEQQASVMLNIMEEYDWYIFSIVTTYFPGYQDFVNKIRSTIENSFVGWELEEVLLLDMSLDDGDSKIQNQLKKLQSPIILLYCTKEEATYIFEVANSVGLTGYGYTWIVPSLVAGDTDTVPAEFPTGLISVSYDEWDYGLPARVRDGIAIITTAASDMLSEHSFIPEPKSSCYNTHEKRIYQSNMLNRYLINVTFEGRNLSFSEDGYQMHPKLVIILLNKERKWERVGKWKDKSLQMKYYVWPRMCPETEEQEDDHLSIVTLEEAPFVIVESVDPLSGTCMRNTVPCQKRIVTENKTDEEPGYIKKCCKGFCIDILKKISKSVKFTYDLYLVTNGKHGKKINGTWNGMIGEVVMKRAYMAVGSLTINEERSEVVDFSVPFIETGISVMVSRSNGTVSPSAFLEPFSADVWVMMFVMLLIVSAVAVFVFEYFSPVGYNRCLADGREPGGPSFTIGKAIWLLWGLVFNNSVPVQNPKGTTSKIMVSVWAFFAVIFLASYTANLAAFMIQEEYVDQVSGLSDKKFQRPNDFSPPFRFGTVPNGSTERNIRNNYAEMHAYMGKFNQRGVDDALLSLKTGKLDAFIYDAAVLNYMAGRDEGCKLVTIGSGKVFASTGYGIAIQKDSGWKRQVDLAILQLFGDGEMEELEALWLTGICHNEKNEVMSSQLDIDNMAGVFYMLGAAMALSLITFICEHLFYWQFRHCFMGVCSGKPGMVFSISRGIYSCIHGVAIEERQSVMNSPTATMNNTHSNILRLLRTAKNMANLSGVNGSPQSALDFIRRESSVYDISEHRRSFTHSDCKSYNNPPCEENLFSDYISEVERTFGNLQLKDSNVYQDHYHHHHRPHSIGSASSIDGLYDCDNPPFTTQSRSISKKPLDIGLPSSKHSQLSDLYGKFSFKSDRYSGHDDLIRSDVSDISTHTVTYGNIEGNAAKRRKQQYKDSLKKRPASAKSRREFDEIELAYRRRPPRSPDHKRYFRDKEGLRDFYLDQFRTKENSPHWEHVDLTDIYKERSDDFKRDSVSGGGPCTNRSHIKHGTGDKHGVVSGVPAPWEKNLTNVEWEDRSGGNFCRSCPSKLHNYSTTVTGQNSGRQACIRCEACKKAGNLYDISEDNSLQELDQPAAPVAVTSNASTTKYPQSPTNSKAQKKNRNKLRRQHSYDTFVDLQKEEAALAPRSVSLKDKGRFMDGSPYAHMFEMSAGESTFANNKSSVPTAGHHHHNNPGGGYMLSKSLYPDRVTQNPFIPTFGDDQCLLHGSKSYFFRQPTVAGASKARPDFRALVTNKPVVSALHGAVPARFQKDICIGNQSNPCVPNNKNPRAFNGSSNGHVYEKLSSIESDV

With `COC1CN(CCn2c(=O)[nH]c3ncc(-c4cccc(C(F)(F)F)c4)cc32)C1` [Example 149, 1-[2-(3-Methoxyazetidin-1-yl)ethyl]-6-[3-(trifluoromethyl)phenyl]-3H-imidazo[4,5-b]pyridin-2-one], the IC50 under setting [1] worked out at 0.756 µM.

Regarding `O=C(Cn1c(=O)[nH]c2ncc(-c3cc(OCCF)cc(C(F)(F)F)c3)cc21)N1CCC1` [Example 539, 1-[2-(Azetidin-1-yl)-2-oxo-ethyl]-6-[3-(2-fluoroethoxy)-5-(trifluoromethyl)phenyl]-3H-imidazo[4,5-b]pyridin-2-one], the IC50 under setting [2] was determined as 0.333 µM.

Turning to `O=c1[nH]c2ncc(-c3ccc(F)c(F)c3)cc2n1Cc1cncc(F)c1` [Example 298, 6-(3,4-Difluorophenyl)-1-[(5-fluoro-3-pyridyl)methyl]-3H-imidazo[4,5-b]pyridin-2-one], under setting [1], the IC50 was 0.032 µM.

As for `O=c1[nH]c2ncc(-c3cccc(C(F)(F)F)c3)cc2n1Cc1csnn1` [Example 243, 1-(Thiadiazol-4-ylmethyl)-6-[3-(trifluoromethyl)phenyl]-3H-imidazo[4,5-b]pyridin-2-one], the IC50 under setting [1] came to 0.065 µM.

`O=c1[nH]c2ncc(-c3cccc(C(F)(F)F)c3)cc2n1Cc1ccc(C(F)(F)F)cc1` [Example 219, 6-[3-(Trifluoromethyl)phenyl]-1-[[4-(trifluoromethyl)phenyl]methyl]-3H-imidazo[4,5-b]pyridin-2-one]: the IC50 under setting [1] is more than 10 µM.

Regarding `Cn1c(=O)n(Cc2ncccn2)c2cc(-c3cccc(C(F)(F)F)c3)cnc21` [Example 261, 3-Methyl-1-(pyrimidin-2-ylmethyl)-6-[3-(trifluoromethyl)phenyl]imidazo[4,5-b]pyridin-2-one], under setting [1], the IC50 was determined as 0.573 µM.

For the compound `COc1cc(F)ccc1-c1cnc2[nH]c(=O)n(Cc3cccc(C#N)c3)c2c1` [Example 478, 3-[[6-(4-Fluoro-2-methoxy-phenyl)-2-oxo-3H-imidazo[4,5-b]pyridin-1-yl]methyl]benzonitrile], the IC50 under setting [3] came to 3.04 µM.

For the compound `Cc1cncc(Cn2c(=O)[nH]c3ncc(-c4ccc(F)c(C(F)(F)F)c4)cc32)c1` [Example 309, 6-[4-Fluoro-3-(trifluoromethyl)phenyl]-1-[(5-methyl-3-pyridyl)methyl]-3H-imidazo[4,5-b]pyridin-2-one], under setting [1], the IC50 came out at 0.316 µM.

In the case of `Cc1cc(-c2cnc3[nH]c(=O)n(Cc4ccccn4)c3c2)ccc1F` [Example 283, 6-(4-Fluoro-3-methyl-phenyl)-1-(2-pyridylmethyl)-3H-imidazo[4,5-b]pyridin-2-one], the IC50 under setting [1] was determined as 0.079 µM.

For the compound `Cc1cc(F)ccc1-c1cnc2c(c1)n(CC(=O)NC1CC1)c(=O)n2C` [Example 42, N-Cyclopropyl-2-[6-(4-fluoro-2-methyl-phenyl)-3-methyl-2-oxo-imidazo[4,5-b]pyridin-1-yl]acetamide], under “HTS assay buffer (1.5 mM MgCl2 dye loading; 150 mM NaCl, 3 mM KCl assay buffer), human GluN1/GluN2B cells, read-out: NR2B IC50 (μM) HTS assay”, the IC50 was 2.71 µM.

`Cn1c(=O)n(Cc2cncc(F)c2)c2cc(-c3ccc(F)c(OC(F)F)c3)cnc21` [Example 547, 6-[3-(Difluoromethoxy)-4-fluoro-phenyl]-1-[(5-fluoro-3-pyridyl)methyl]-3-methyl-imidazo[4,5-b]pyridin-2-one]: under setting [2], the IC50 was determined as 0.036 µM.

Take `Cc1c(F)ccc(-c2cnc3c(c2)n(CC(=O)N2CCC2)c(=O)n3C)c1F` [Example 409, 1-[2-(Azetidin-1-yl)-2-oxo-ethyl]-6-(2,4-difluoro-3-methyl-phenyl)-3-methyl-imidazo[4,5-b]pyridin-2-one]: the IC50 under setting [2] is 0.008 µM.

Turning to `O=C(Cn1c(=O)[nH]c2ncc(-c3cccc(C(F)(F)F)c3)cc21)N1CCCCC1` [Example 206, 1-[2-Oxo-2-(1-piperidyl)ethyl]-6-[3-(trifluoromethyl)phenyl]-3H-imidazo[4,5-b]pyridin-2-one], the IC50 under setting [1] was 0.163 µM.

`Cn1c(=O)n(Cc2cnccn2)c2cc(-c3cccc(C(F)(F)F)c3)cnc21` [Example 249, 3-Methyl-1-(pyrazin-2-ylmethyl)-6-[3-(trifluoromethyl)phenyl]imidazo[4,5-b]pyridin-2-one]: the IC50 under setting [1] is 0.253 µM.

With `Cn1c(=O)n(CC(=O)N2CCC2)c2cc(-c3ccc(F)c(F)c3)cnc21` [Example 422, 1-[2-(Azetidin-1-yl)-2-oxo-ethyl]-6-(3,4-difluorophenyl)-3-methyl-imidazo[4,5-b]pyridin-2-one], under setting [2], the IC50 turned out to be 0.01 µM.

Regarding `Cn1c(=O)n(Cc2cccnc2)c2cc(-c3cc(C(F)F)ccc3F)cnc21` [Example 386, 6-(5-(Difluoromethyl)-2-fluorophenyl)-3-methyl-1-(pyridin-3-ylmethyl)-1,3-dihydro-2H-imidazo[4,5-b]pyridin-2-one], the IC50 under setting [2] was determined as 1.11 µM.

In the case of `O=C(Cn1c(=O)n(CF)c2ncc(-c3ccc(C(F)(F)F)s3)cc21)N1CCCC1` [Example 598, 3-(Fluoromethyl)-1-(2-oxo-2-pyrrolidin-1-yl-ethyl)-6-[5-(trifluoromethyl)-2-thienyl]imidazo[4,5-b]pyridin-2-one], the IC50 under setting [2] amounted to 0.173 µM.

With `COc1cccc(Cn2c(=O)[nH]c3ncc(-c4cccnc4)cc32)c1` [Example 506, 1-[(3-Methoxyphenyl)methyl]-6-(3-pyridyl)-3H-imidazo[4,5-b]pyridin-2-one], the IC50 under setting [3] was more than 29 µM.

Regarding `Cc1cccc(-c2cnc3c(c2)n(Cc2cncc(F)c2)c(=O)n3C)c1F` [Example 352, 6-(2-Fluoro-3-methyl-phenyl)-1-[(5-fluoro-3-pyridyl)methyl]-3-methyl-imidazo[4,5-b]pyridin-2-one], the IC50 under setting [2] was found to be 0.052 µM.

With `Cc1cc(C)cc(-c2cnc3[nH]c(=O)n(CCN4CCC4)c3c2)c1` [Example 170, 1-[2-(Azetidin-1-yl)ethyl]-6-(3,5-dimethylphenyl)-3H-imidazo[4,5-b]pyridin-2-one], the IC50 under setting [1] was 0.581 µM.

As to `CCC(=O)Cn1c(=O)[nH]c2ncc(-c3ccc(F)c(C)c3)cc21` [Example 331, 6-(4-Fluoro-3-methyl-phenyl)-1-(2-oxobutyl)-3H-imidazo[4,5-b]pyridin-2-one], the IC50 under setting [2] is 0.012 µM.

On to `COc1ccc(-c2cnc3[nH]c(=O)n(CC(=O)NC4CC4)c3c2)cc1C` [Example 451, N-Cyclopropyl-2-[6-(4-methoxy-3-methyl-phenyl)-2-oxo-3H-imidazo[4,5-b]pyridin-1-yl]acetamide], for which, under setting [3], the 50% inhibitory concentration (IC50) was determined as 1.03 µM.

For the compound `CCOc1ccc(F)cc1-c1cnc2[nH]c(=O)n(Cc3cccc(F)c3)c2c1` [Example 494, 6-(2-Ethoxy-5-fluoro-phenyl)-1-[(3-fluorophenyl)methyl]-3H-imidazo[4,5-b]pyridin-2-one], under setting [3], the half-inhibitory concentration (IC50) worked out at 5.64 µM.

On to `Cn1c(=O)n(Cc2cncc(F)c2)c2cc(-c3ccc(F)c(F)c3)cnc21` [Example 343, 6-(3,4-Difluorophenyl)-1-[(5-fluoro-3-pyridyl)methyl]-3-methyl-imidazo[4,5-b]pyridin-2-one], for which the concentration for half-maximal inhibition (IC50) under setting [2] came to 0.256 µM.

On to `Cc1c(F)ccc(-c2cnc3c(c2)n(Cc2cn(C)nn2)c(=O)n3C)c1F` [Example 574, 6-(2,4-Difluoro-3-methyl-phenyl)-3-methyl-1-[(1-methyltriazol-4-yl)methyl]imidazo[4,5-b]pyridin-2-one], for which the IC50 under setting [2] was 0.046 µM.

Regarding `CCOc1ccc(F)cc1-c1cnc2[nH]c(=O)n(CC(=O)NC3CC3)c2c1` [Example 607, N-Cyclopropyl-2-[6-(2-ethoxy-5-fluoro-phenyl)-2-oxo-3H-imidazo[4,5-b]pyridin-1-yl]acetamide], under setting [2], the IC50 worked out at 0.336 µM.

With `Cn1ccc(Cn2c(=O)[nH]c3ncc(-c4ccc(F)c(F)c4)cc32)n1` [Example 131, 6-(3,4-Difluorophenyl)-1-[(1-methylpyrazol-3-yl)methyl]-3H-imidazo[4,5-b]pyridin-2-one], under setting [1], the IC50 worked out at 3.56 µM.

Turning to `O=c1[nH]c2ncc(-c3cccc(C(F)(F)F)c3)cc2n1C(F)(F)c1cccnc1` [Example 237, 1-[Difluoro(3-pyridyl)methyl]-6-[3-(trifluoromethyl)phenyl]-3H-imidazo[4,5-b]pyridin-2-one], under setting [1], the IC50 was more than 10 µM.

Regarding `O=c1[nH]c2ncc(-c3cc(F)cc(F)c3)cc2n1CCN1CCC(O)C1` (centres unmarked) [Example 175, 6-(3,5-Difluorophenyl)-1-[2-(3-hydroxypyrrolidin-1-yl)ethyl]-3H-imidazo[4,5-b]pyridin-2-one], the half-maximal inhibitory concentration (IC50) under setting [1] amounted to 2.11 µM.

With `CCC(=O)Cn1c(=O)[nH]c2ncc(-c3cccc(C)c3)cc21` [Example 332, 6-(m-Tolyl)-1-(2-oxobutyl)-3H-imidazo[4,5-b]pyridin-2-one], the half-maximal inhibitory concentration (IC50) under setting [2] came to 0.036 µM.

Regarding `Cc1c(F)ccc(-c2cnc3[nH]c(=O)n(Cc4cccnc4)c3c2)c1F` [Example 293, 6-(2,4-Difluoro-3-methyl-phenyl)-1-(3-pyridylmethyl)-3H-imidazo[4,5-b]pyridin-2-one], under setting [1], the IC50 came out at 0.017 µM.

With `Cn1c(=O)n(Cc2cnccn2)c2cc(-c3ccc(F)c(F)c3)cnc21` [Example 63, 6-(3,4-Difluorophenyl)-3-methyl-1-(pyrazin-2-ylmethyl)imidazo[4,5-b]pyridin-2-one], the IC50 under setting [1] amounted to 2.3 µM.

Take `CN(C)C(=O)Cn1c(=O)n(C)c2ncc(-c3csc(C(F)(F)F)n3)cc21` [Example 108, N,N-Dimethyl-2-[3-methyl-2-oxo-6-[2-(trifluoromethyl)thiazol-4-yl]imidazo[4,5-b]pyridin-1-yl]acetamide]: under setting [1], the IC50 came out at 0.047 µM.

As to `O=c1[nH]c2ncc(-c3ccc(F)c(Cl)c3)cc2n1Cc1ccc(F)cc1` [Example 502, 6-(3-Chloro-4-fluoro-phenyl)-1-[(4-fluorophenyl)methyl]-3H-imidazo[4,5-b]pyridin-2-one], the IC50 under setting [3] was found to be 4.86 µM.

`Cc1ccncc1Cn1c(=O)[nH]c2ncc(-c3ccc(F)c(F)c3)cc21` [Example 275, 6-(3,4-Difluorophenyl)-1-[(4-methyl-3-pyridyl)methyl]-3H-imidazo[4,5-b]pyridin-2-one]: the IC50 under setting [1] came out at 0.009 µM.
